From patent US20170226139A1, “CRYSTALLINE SALTS OF (Z)-O-OCTADEC-9-EN-1-YL O,O-DIHYDROGEN PHOSPHOROTHIOATE” (priority 2013, published 2017)
Read-outs that look alike come from different tables or passages of the source.

Legend:
[1] = tested on: S. typhimurium strains TA98, TA100, TA1535 and TA1537 and E. coli strain WP2uvrA; format: cell-based
Method: An Ames assay was conducted on Rx100.Lysine using S. typhimurium strains TA98, TA100, TA1535 and TA1537 and E. coli strain WP2uvrA. Two trials were performed. […] See Tables 38A and 38B, respectively. In the second trial, doses ranged from 0.160 to 16 μg/plate with some strains tested with activation and others without activation.

[2] = Qualitative solubility of Rx100.L-Lysine salt in 13 additional solvents; format: physicochemical; settings: for Observation (qualitative solubility): ~50 mg solid
Excerpt: The solubility of Rx100.L-Lysine salt was further tested in 13 additional solvents.

[3] = Short term (24 hour) slurry tests, XRPD of wet and dried solids; format: physicochemical; settings: minimum 24 hours, 15 solvent systems, 25 and 50° C., wet and dried solids
Method: Second, short term slurry tests were performed. Rx100.L-Lysine salt was slurried for a minimum of 24 hours in 15 different solvent systems at two different temperatures (25 and 50° C.) in an attempt to provide information for crystallization experiments and design of polymorph screening experiments. A 48 position Chemglass reaction block was used for heating and stirring the slurries which were in 2 mL HPLC vials. After the due time, vials were centrifuged and the wet solids were used for X-ray diffraction. […]

SMILES: CCCCCCCC/C=C\CCCCCCCCOP(O)(O)=S [Rx100.L-Lysine, (Z)—O-octadec-9-en-1-yl O,O-dihydrogen phosphorothioate]
- Ames assay, overall result [1]: negative
- Genotoxic Effects ([1]; Bacterial Reverse Mutation Assay, plate incorporation 52 ± 4 hours): Genotoxic Effects: None
- Revertant Colony Counts (Mean ± SD) ([1]; TA98, with metabolic activation, 1.45 μg/plate): 17 ± 5 ^N
- Revertant Colony Counts (Mean ± SD) ([1]; TA98, with metabolic activation, 4.52 μg/plate): 19 ± 3 ^N
- Revertant Colony Counts (Mean ± SD) ([1]; TA98, with metabolic activation, 14.5 μg/plate): 16 ± 5 ^N
- Revertant Colony Counts (Mean ± SD) ([1]; TA98, with metabolic activation, 45.2 μg/plate): 20 ± 6 ^N
- Revertant Colony Counts (Mean ± SD) ([1]; TA98, with metabolic activation, 145 μg/plate): 0 ± 0 ^E
- Revertant Colony Counts (Mean ± SD) ([1]; TA98, with metabolic activation, 452 μg/plate): 0 ± 0 ^V
- Revertant Colony Counts (Mean ± SD) ([1]; TA98, with metabolic activation, 1450 μg/plate): 0 ± 0 ^A
- Revertant Colony Counts (Mean ± SD) ([1]; TA98, with metabolic activation, 4520 μg/plate): 0 ± 0 ^A
- Revertant Colony Counts (Mean ± SD) ([1]; TA100, with metabolic activation, 1.45 μg/plate): 114 ± 12 ^N
- Revertant Colony Counts (Mean ± SD) ([1]; TA100, with metabolic activation, 4.52 μg/plate): 117 ± 5 ^N
- Revertant Colony Counts (Mean ± SD) ([1]; TA100, with metabolic activation, 14.5 μg/plate): 89 ± 14 ^N
- Revertant Colony Counts (Mean ± SD) ([1]; TA100, with metabolic activation, 45.2 μg/plate): 26 ± 3 ^E
- Revertant Colony Counts (Mean ± SD) ([1]; TA100, with metabolic activation, 145 μg/plate): 39 ± 3 ^M R
- Revertant Colony Counts (Mean ± SD) ([1]; TA100, with metabolic activation, 452 μg/plate): 0 ± 0 ^A T
- Revertant Colony Counts (Mean ± SD) ([1]; TA100, with metabolic activation, 1450 μg/plate): 0 ± 0 ^M A T
- Revertant Colony Counts (Mean ± SD) ([1]; TA100, with metabolic activation, 4520 μg/plate): 0 ± 0 ^A T
- Revertant Colony Counts (Mean ± SD) ([1]; TA1535, with metabolic activation, 0.0181 μg/plate): 10 ± 4 ^N M
- Revertant Colony Counts (Mean ± SD) ([1]; TA1535, with metabolic activation, 0.0452 μg/plate): 11 ± 2 ^C M N
- Revertant Colony Counts (Mean ± SD) ([1]; TA1535, with metabolic activation, 0.145 μg/plate): 9 ± 3 ^N
- Revertant Colony Counts (Mean ± SD) ([1]; TA1535, with metabolic activation, 0.452 μg/plate): 13 ± 1 ^N
- Revertant Colony Counts (Mean ± SD) ([1]; TA1535, with metabolic activation, 1.45 μg/plate): 11 ± 5 ^N
- Revertant Colony Counts (Mean ± SD) ([1]; TA1535, with metabolic activation, 4.52 μg/plate): 9 ± 1 ^N
- Revertant Colony Counts (Mean ± SD) ([1]; TA1535, with metabolic activation, 14.5 μg/plate): 11 ± 3 ^N
- Revertant Colony Counts (Mean ± SD) ([1]; TA1537, with metabolic activation, 1.45 μg/plate): 9 ± 3 ^N
- Revertant Colony Counts (Mean ± SD) ([1]; TA1537, with metabolic activation, 4.52 μg/plate): 7 ± 2 ^N M
- Revertant Colony Counts (Mean ± SD) ([1]; TA1537, with metabolic activation, 14.5 μg/plate): 6 ± 5 ^M N
- Revertant Colony Counts (Mean ± SD) ([1]; TA1537, with metabolic activation, 45.2 μg/plate): 3 ± 2 ^E
- Revertant Colony Counts (Mean ± SD) ([1]; TA1537, with metabolic activation, 145 μg/plate): 0 ± 0 ^R
- Revertant Colony Counts (Mean ± SD) ([1]; TA1537, with metabolic activation, 452 μg/plate): 0 ± 0 ^V
- Revertant Colony Counts (Mean ± SD) ([1]; TA1537, with metabolic activation, 1450 μg/plate): 0 ± 0 ^V
- Revertant Colony Counts (Mean ± SD) ([1]; TA1537, with metabolic activation, 4520 μg/plate): 0 ± 0 ^A
- Revertant Colony Counts (Mean ± SD) ([1]; WP2uvrA, with metabolic activation, 1.45 μg/plate): 13 ± 4 ^N
- Revertant Colony Counts (Mean ± SD) ([1]; WP2uvrA, with metabolic activation, 4.52 μg/plate): 17 ± 4 ^M N
- Revertant Colony Counts (Mean ± SD) ([1]; WP2uvrA, with metabolic activation, 14.5 μg/plate): 19 ± 4 ^N
- Revertant Colony Counts (Mean ± SD) ([1]; WP2uvrA, with metabolic activation, 45.2 μg/plate): 12 ± 4 ^N
- Revertant Colony Counts (Mean ± SD) ([1]; WP2uvrA, with metabolic activation, 145 μg/plate): 15 ± 4 ^N M
- Revertant Colony Counts (Mean ± SD) ([1]; WP2uvrA, with metabolic activation, 452 μg/plate): 15 ± 5 ^N
- Revertant Colony Counts (Mean ± SD) ([1]; WP2uvrA, with metabolic activation, 1450 μg/plate): 9 ± 3 ^N
- Revertant Colony Counts (Mean ± SD) ([1]; WP2uvrA, with metabolic activation, 4520 μg/plate): 0 ± 0 ^E
- Revertant Colony Counts (Mean ± SD) ([1]; Without Metabolic Activation, TA98, 0.0181 μg/plate): 15 ± 3 ^N
- Revertant Colony Counts (Mean ± SD) ([1]; Without Metabolic Activation, TA98, 0.0452 μg/plate): 15 ± 5 ^N M
- Revertant Colony Counts (Mean ± SD) ([1]; Without Metabolic Activation, TA98, 0.145 μg/plate): 13 ± 2 ^N M
- Revertant Colony Counts (Mean ± SD) ([1]; Without Metabolic Activation, TA98, 0.452 μg/plate): 13 ± 5 ^N
- Revertant Colony Counts (Mean ± SD) ([1]; Without Metabolic Activation, TA98, 1.45 μg/plate): 14 ± 2 ^N
- Revertant Colony Counts (Mean ± SD) ([1]; Without Metabolic Activation, TA98, 4.52 μg/plate): 12 ± 4 ^N
- Revertant Colony Counts (Mean ± SD) ([1]; Without Metabolic Activation, TA98, 14.5 μg/plate): 12 ± 3 ^N
- Revertant Colony Counts (Mean ± SD) ([1]; Without Metabolic Activation, TA100, 0.0181 μg/plate): 92 ± 8 ^N
- Revertant Colony Counts (Mean ± SD) ([1]; Without Metabolic Activation, TA100, 0.0452 μg/plate): 93 ± 16 ^N
- Revertant Colony Counts (Mean ± SD) ([1]; Without Metabolic Activation, TA100, 0.145 μg/plate): 88 ± 11 ^N
- Revertant Colony Counts (Mean ± SD) ([1]; Without Metabolic Activation, TA100, 0.452 μg/plate): 86 ± 13 ^N
- Revertant Colony Counts (Mean ± SD) ([1]; Without Metabolic Activation, TA100, 1.45 μg/plate): 84 ± 16 ^N
- Revertant Colony Counts (Mean ± SD) ([1]; Without Metabolic Activation, TA100, 4.52 μg/plate): 53 ± 7 ^R
- Revertant Colony Counts (Mean ± SD) ([1]; Without Metabolic Activation, TA100, 14.5 μg/plate): 51 ± 4 ^M R
- Revertant Colony Counts (Mean ± SD) ([1]; Without Metabolic Activation, TA1535, 0.0181 μg/plate): 15 ± 4 ^N
- Revertant Colony Counts (Mean ± SD) ([1]; Without Metabolic Activation, TA1535, 0.0452 μg/plate): 16 ± 2 ^N
- Revertant Colony Counts (Mean ± SD) ([1]; Without Metabolic Activation, TA1535, 0.145 μg/plate): 12 ± 1 ^N
- Revertant Colony Counts (Mean ± SD) ([1]; Without Metabolic Activation, TA1535, 0.452 μg/plate): 11 ± 3 ^N
- Revertant Colony Counts (Mean ± SD) ([1]; Without Metabolic Activation, TA1535, 1.45 μg/plate): 11 ± 2 ^N
- Revertant Colony Counts (Mean ± SD) ([1]; Without Metabolic Activation, TA1535, 4.52 μg/plate): 8 ± 3 ^N
- Revertant Colony Counts (Mean ± SD) ([1]; Without Metabolic Activation, TA1535, 14.5 μg/plate): 4 ± 1 ^R M
- Revertant Colony Counts (Mean ± SD) ([1]; Without Metabolic Activation, TA1537, 0.0181 μg/plate): 6 ± 4 ^N
- Revertant Colony Counts (Mean ± SD) ([1]; Without Metabolic Activation, TA1537, 0.0452 μg/plate): 6 ± 3 ^N M
- Revertant Colony Counts (Mean ± SD) ([1]; Without Metabolic Activation, TA1537, 0.145 μg/plate): 5 ± 0 ^M N
- Revertant Colony Counts (Mean ± SD) ([1]; Without Metabolic Activation, TA1537, 0.452 μg/plate): 6 ± 3 ^M N
- Revertant Colony Counts (Mean ± SD) ([1]; Without Metabolic Activation, TA1537, 1.45 μg/plate): 5 ± 2 ^N
- Revertant Colony Counts (Mean ± SD) ([1]; Without Metabolic Activation, TA1537, 4.52 μg/plate): 3 ± 4 ^N
- Revertant Colony Counts (Mean ± SD) ([1]; Without Metabolic Activation, TA1537, 14.5 μg/plate): 1 ± 1 ^R M
- Revertant Colony Counts (Mean ± SD) ([1]; Without Metabolic Activation, WP2uvrA, 1.45 μg/plate): 12 ± 5 ^N
- Revertant Colony Counts (Mean ± SD) ([1]; Without Metabolic Activation, WP2uvrA, 4.52 μg/plate): 13 ± 3 ^M N
- Revertant Colony Counts (Mean ± SD) ([1]; Without Metabolic Activation, WP2uvrA, 14.5 μg/plate): 17 ± 6 ^N
- Revertant Colony Counts (Mean ± SD) ([1]; Without Metabolic Activation, WP2uvrA, 45.2 μg/plate): 14 ± 4 ^N
- Revertant Colony Counts (Mean ± SD) ([1]; Without Metabolic Activation, WP2uvrA, 145 μg/plate): 15 ± 3 ^N
- Revertant Colony Counts (Mean ± SD) ([1]; Without Metabolic Activation, WP2uvrA, 452 μg/plate): 12 ± 2 ^N
- Revertant Colony Counts (Mean ± SD) ([1]; Without Metabolic Activation, WP2uvrA, 1450 μg/plate): 8 ± 3 ^E
- Revertant Colony Counts (Mean ± SD) ([1]; Without Metabolic Activation, WP2uvrA, 4520 μg/plate): 0 ± 0 ^E
- revertant colonies ([1]; any strain, any concentration (1.6 to 5000 μg/plate; 0.160 to 16 μg/plate), with or without metabolic activation): No increase in revertant colonies
- Observation (qualitative solubility) ([2]; Acetone:water (1:1), 0.5 mL added): dissolved
- Observation (qualitative solubility) ([2]; Acetone, 0.75 mL added): slurry
- Observation (qualitative solubility) ([2]; EtOH:water (1:1), 0.75 mL added): dissolved
- Observation (qualitative solubility) ([2]; EtOH:water (8:2), 0.75 mL added): cloudy
- Observation (qualitative solubility) ([2]; EtOH, 0.75 mL added): slurry
- Qualitative solubility ([2]; IPA-water (1:1)): soluble
- Observation (qualitative solubility) ([2]; IPA:water (1:1), 0.75 mL added): dissolved
- Observation (qualitative solubility) ([2]; IPA:water (8:2), 0.75 mL added): oil
- Observation (qualitative solubility) ([2]; IPA, 0.75 mL added): slurry
- Observation (qualitative solubility) ([2]; MeOH:water (1:1), 0.5 mL added): dissolved
- Observation (qualitative solubility) ([2]; MeOH:water (8:2), 0.75 mL added): dissolved
- Observation (qualitative solubility) ([2]; MeOH, 0.75 mL added): slurry
- Observation (qualitative solubility) ([2]; THF:water (1:1), 0.5 mL added): oil
- Observation (qualitative solubility) ([2]; THF, 0.75 mL added): slurry
- Qualitative solubility ([2]; acetone:water (1:1)): soluble
- Qualitative solubility ([2]; ethanol:water (1:1)): soluble
- Qualitative solubility ([2]; methanol:water (1:1)): soluble
- Qualitative solubility ([2]; methanol:water (8:2)): soluble
- Form by XRPD after short term slurry ([3]; listed as Rx100.L-Lysine salt): no change in form
- Form by XRPD after short term slurry ([3]; listed as Rx100 crystalline sesqui-L-lysine salt): do not change in form
